Each block holds one molecule with its values, some of them ahead of it.
Key:
[1] = test system: enzyme of a small intestinal membrane; assay: Hydrolysis by enzyme of small intestinal membrane; format: in vitro ADME; conditions: method of Okada et al.
Solubility in solvents = format: physicochemical
[2] = Coloring reaction / direct reducing activity; format: physicochemical
physchem = format: physicochemical; conditions: for Stability, residual percentage: 0 min, 70 uM; for remaining at 0.25 h, 70 µM / remaining at 0.5 h, 70 µM / remaining at 1 h, 70 µM / remaining at 21 h, 70 µM: aqueous solution
Experimental: (h) Stability: The stability of the substance X was compared with L-ascorbic acid as a control. Each specimen was adjusted to give a concentration of 70 μM and to pH 7.0 or pH 2.0, and the resultant each solution was placed in a cell for an absorption spectrophotometer. The cell was set to the absorption spectrophotometer and kept at 20° C., followed by determining at a prescribed time interval an absorbance at 265 nm with the solution of pH 7.0 and an absorbance at 243 nm with the solution of pH 2.0, and comparing the residual percentage (%) of each specimen.

7 week-old dd mice = assay: Acute toxicity test, oral; format: in vivo; conditions: up to 5 g of the specimen, a higher dose was difficult
From the text: A high-purity 5-O-α-D-glucopyranosyl-L-ascorbic acid, prepared by the method in Experiment 1, was orally administered to 7 week-old dd mice for acute toxicity test. As a result, no mouse died when administered with up to 5 g of the specimen, and a higher dose was difficult.

[3] = Hydrolysis under a relatively-high acidic- and temperature-condition; format: physicochemical; conditions: relative to the substances X and Y; pH 1.7, 100° C.
Experimental: Thus, we removed 2-O-α-D-glucopyranosyl-L-ascorbic acid by using this hydrolysis.
The method was as follows: The second mother liquor was adjusted to give a concentration of 25%, adjusted to pH 1.7 by the addition of hydrochloric acid, and allowed to predominantly hydrolyze 2-O-α-D-glucopyranosyl-L-ascorbic acid at 100° C. Thereafter, the resultant solution was cooled and fed to a column packed with an anion exchange resin (OH^- -form) to adsorb the substances X and Y thereon, and the column was washed with water and fed with 0.5N hydrochloric acid to obtain a solution containing the substances X and Y.

SMILES: O=C1O[C@H]([C@H](CO)O[C@H]2O[C@H](CO)[C@@H](O)[C@H](O)[C@H]2O)C(O)=C1O [substance X, 5-O-α-D-glucopyranosyl-L-ascorbic acid]
Hydrolysis by enzyme of small intestinal membrane [1]: readily hydrolyzed | Solubility in 0.1M acetic acid (Solubility in solvents; 0.1M acetic acid): readily soluble | Solubility in 0.1N sodium hydroxide (Solubility in solvents; 0.1N sodium hydroxide): readily soluble | Solubility in benzene (Solubility in solvents; benzene): insoluble | Solubility in chloroform (Solubility in solvents; chloroform): insoluble | Solubility in ethanol (Solubility in solvents; ethanol): slightly soluble | Solubility in ether (Solubility in solvents; ether): insoluble | Solubility in methanol (Solubility in solvents; methanol): slightly soluble | Solubility in water (Solubility in solvents; water): readily soluble | Reducing activity (decoloring of 2,6-dichlorophenolindophenol) [2]: exhibits a reducing activity, and decolors 2,6-dichlorophenolindophenol | Stability compared with L-ascorbic acid (physchem): stabler than L-ascorbic acid | Stability, residual percentage (physchem; pH 2): 100% | Stability, residual percentage (physchem; pH 7): 100% | remaining at 0.25 h, 70 µM (physchem; pH 2): 99% | remaining at 0.5 h, 70 µM (physchem; pH 2): 98% | remaining at 1 h, 70 µM (physchem; pH 2): 90% | remaining at 21 h, 70 µM (physchem; pH 2): 50% | remaining at 0.25 h, 70 µM (physchem; pH 7): 58% | remaining at 0.5 h, 70 µM (physchem; pH 7): 35% | remaining at 1 h, 70 µM (physchem; pH 7): 16% | remaining at 21 h, 70 µM (physchem; pH 7): 6% | Acute toxicity, mortality (7 week-old dd mice): no mouse died

Stability, residual percentage (physchem; pH 2): 100% | Stability, residual percentage (physchem; pH 7): 100% | remaining at 21 h, 70 µM (physchem; pH 2): 10% | remaining at 0.5 h, 70 µM (physchem; pH 7): 20% | remaining at 1 h, 70 µM (physchem; pH 7): 8% | remaining at 21 h, 70 µM (physchem; pH 7): 2%
SMILES: O=C1O[C@H]([C@@H](O)CO)C(O)=C1O [AsA, L-ascorbic acid]

Hydrolysis by enzyme of small intestinal membrane [1]: not substantially hydrolyzed
SMILES: O=C1O[C@H]([C@@H](O)CO[C@H]2O[C@H](CO)[C@@H](O)[C@H](O)[C@H]2O)C(O)=C1O [substance Y, 6-O-α-D-glucopyranosyl-L-ascorbic acid, reference compound]

SMILES: O=C1O[C@H]([C@@H](O)CO)C(O)=C1O[C@H]1O[C@H](CO)[C@@H](O)[C@H](O)[C@H]1O [2-O-α-D-glucopyranosyl-L-ascorbic acid]
Hydrolysis under relatively-high acidic- and temperature-condition [3]: more readily hydrolyzed than the substances X and Y

— patent US5272136A, “5-0-α-D-Glucopyranosyl-L-ascorbic acid, and its preparation and uses” (priority 1991, dated 1993)
